Measured values taken from patent US11628163B2, “1-piperidinepropionic acid for treating a fibrosing disease” (UNIVERSITÀ DEGLI STUDI DI PADOVA, priority 2017, dated 2023).
Entries after “also recorded” stand apart in the source; their conditions may differ.

B1: SerpinB3: recombinant SerpinB3 (Squamous Cell Carcinoma Antigen, SCCA1), a serine protease inhibitor, added as exogenous stimulus (protein, UniProt P29508 1-390, looked up)
Serpin B3: MNSLSEANTKFMFDLFQQFRKSKENNIFYSPISITSALGMVLLGAKDNTAQQIKKVLHFDQVTENTTGKAATYHVDRSGNVHHQFQKLLTEFNKSTDAYELKIANKLFGEKTYLFLQEYLDAIKKFYQTSVESVDFANAPEESRKKINSWVESQTNEKIKNLIPEGNIGSNTTLVLVNAIYFKGQWEKKFNKEDTKEEKFWPNKNTYKSIQMMRQYTSFHFASLEDVQAKVLEIPYKGKDLSMIVLLPNEIDGLQKLEEKLTAEKLMEWTSLQNMRETRVDLHLPRFKVEESYDLKDTLRTMGMVDIFNGDADLSGMTGSRGLVLSGVLHKAFVEVTEEGAEAAAATAVVGFGSSPTSTNEEFHCNHPFLFFIRQNKTNSILFYGRFSSP

Experiments:
[1] = tested on: experimental murine model of steatohepatitis (NASH); assay: Murine model of steatohepatitis (NASH): methionine- and choline-deficient diet (MCD), SerpinB3-transgenic and wild-type (C57BL/7) mice; assay type: in vivo; details: for liver histology: steatosis and lobular damage / relative liver weight (liver weight/body weight): MCD diet 8 weeks, i.p. daily from Week 4, PPA 0.01 μg/g or Curcumin 0.2 mg/g; for liver histology: steatosis and lobular damage: especially transgenic mice liver; for relative liver weight (liver weight/body weight): wild-type and SerpinB3-transgenic mice, more evident in transgenic mice
Description: PPA effect was also assessed in a murine model of fibrosing disease, in particular an experimental model of non-alcoholic steatohepatitis, which is a condition in which a fatty liver, associated with inflammation and fibrosis production, causes, among other things, a high risk of neoplastic transformation. In the study, both SerpinB3-transgenic mice and the respective wild-type (C57BL/7) strain were used, fed for 8 weeks with a methionine- and choline-deficient diet (MCD), which constitutes a recognized steatohepatitis induction model, or with a normal diet. MCD diet-treated transgenic and control mice groups starting from Week 4, were administered daily by intraperitoneal route, PPA (0.01 μg/g), or Curcumin (a molecule with a recognized anti-inflammatory and anti-fibrotic activity in animal models) as control, at standard concentrations (0.2 mg/g).
To assess PPA effect as SerpinB3 inhibitor in an experimental murine model of steatohepatitis (NASH), a condition with a high risk of hepatic tumor, both SerpinB3-transgenic mice and the respective wild-type (C57BL/7) strain were used.
The animals were fed for 8 weeks with a methionine- and choline-deficient diet (MCD), a recognized steatohepatitis induction model, or with a normal diet. MCD diet-treated transgenic and control mice groups, starting from Week 4, were administered daily, by intraperitoneal route, PPA (0.01 μg/g), or Curcumin (a molecule with a recognized anti-inflammatory and anti-fibrotic activity in animal models) as control, at the standard concentration of 0.2 mg/g. […] This effect was more evident in transgenic mice.

SerpinB3 = SerpinB3 mRNA expression in HT29 tumor cells (real-time PCR); assay type: cell-based; details: 24 hours
Description: HT29 tumor cells, constitutively expressing SerpinB3, were used, […] cells/well were seeded into 6-well plates and kept 24 hours prior to treatment in modified McCoy medium (Sigma-Aldrich, Milan, Italy) supplemented with heat-inactivated 10% fetal calf serum, (Sigma-Aldrich, Milan, Italy), 100 U/ mL penicillin, […] streptomycin, and 20 mM L-glutamine (Sigma-Aldrich, Milan, Italy),
Then, PPA (1′-piperidinepropionic acid) was added, at a concentration of 100 ng/ml alone or in combination with recombinant SerpinB3 (SB3) at a concentration of 200 ng/ml, whereas the medium alone (untreated HT-29 cells) was added into control wells. After 24 hours of treatment cells were harvested, and extraction of total cell RNA and reverse transcription were performed according to standard protocols. mRNA SerpinB3 levels were measured by real-time PCR (sense: 5′-GCAAATGCTCCAGAAGAAAG-3′; reverse 5′-CGA GGC AAA ATGAAAA AGA TG-3′) and the results were normalized on the basis of data obtained with housekeeping HPRT1 (sense 5′-TCAGGCAGTATAATCC AAAGATGGT-3′; reverse 5′-[…] -3′).

primary human monocytes = assay: Release of soluble CD163 (sCD163) by primary human monocytes; assay type: cell-based
Description: PPA effect was evaluated in this context as well, where primary monocytes incubated 1 week with SerpinB3 at a concentration of 200 ng/ml alone, or in association with PPA (100 ng/ml) were used. Monocytes kept in culture medium and monocytes treated with PPA alone at the same concentrations were used as controls.

[2] = SerpinB3 transgenic mice, MCD diet, PPA 0.01 μg/g i.p. daily from Week 4

Molecule | liver histology: steatosis and lobular damage [1] | relative liver weight (liver weight/body weight) [1] | IL-1 beta gene expression [1, 2] | Mcp1 gene expression [1, 2] | TNF-alpha gene expression [1, 2] | alpha-SMA (marker of stellate cell activation) gene expression ([1]; both strains (wild-type and SerpinB3-transgenic), MCD diet, PPA 0.01 μg/g i.p. daily from Week 4) | SerpinB3 expression (mRNA) after induction from exogenous SerpinB3 (SerpinB3; PPA 100 ng/ml + recombinant SerpinB3 200 ng/ml) | SerpinB3 expression (mRNA), constitutive (SerpinB3; PPA 100 ng/ml alone, normalized to HPRT1) | sCD163 release in the culture medium after stimulation with SerpinB3 (primary human monocytes; primary monocytes, 1 week, SerpinB3 200 ng/ml + PPA 100 ng/ml) | spontaneous release of sCD163 (primary human monocytes; primary monocytes, PPA alone 100 ng/ml, compared with untreated monocytes) | liver histology: steatosis and lobular damage ([1]; listed as curcumin) | relative liver weight (liver weight/body weight) ([1]; listed as curcumin) | reduction of the inflammatory response ([1]; MCD diet, Curcumin 0.2 mg/g i.p. daily from Week 4) | SerpinB3 expression (mRNA) after treatment with exogenous SerpinB3 (SerpinB3; recombinant SerpinB3 200 ng/ml) | release of sCD163 induced by SerpinB3 (primary human monocytes; primary human monocytes, SerpinB3 200 ng/ml, preliminary results)
O=C(O)CCN1CCCCC1 [PPA, 1-piperidinepropionic acid] | reduced; also recorded: more marked steatosis, associated with a higher relative liver weight, compared to mice MCD diet-fed, but treated with PPA or curcumin | reduced; also recorded: higher relative liver weight, compared to mice MCD diet-fed, but treated with PPA or curcumin; also recorded: higher relative liver weight (liver weight/body weight) after MCD diet, compared to mice treated with the same diet | significant decrease | significant decrease | increase was non-evident; also recorded: increase proved not evident | marked reduction | significantly reduce | significantly reduce; also recorded: inhibit SerpinB3 synthesis | markedly reduced | reduces | – | – | – | – | –
COc1cc(/C=C/C(=O)CC(=O)/C=C/c2ccc(O)c(OC)c2)ccc1O [Curcumin, reference compound] | reduced | – | – | – | – | – | – | – | – | – | more marked steatosis, associated with a higher relative liver weight, compared to mice MCD diet-fed, but treated with PPA or curcumin | higher relative liver weight, compared to mice MCD diet-fed, but treated with PPA or curcumin | obtained also with curcumin | – | –
B1 | – | – | – | – | – | – | – | – | – | – | – | – | – | increased | induces the release
